# From patent publication US11426375B2, “Substituted bisphenyl butanoic ester derivatives as NEP inhibitors” (NOVARTIS AG, priority 2019, dated 2022)
# What was measured:
# [1] = test system: DSS (Dahl Salt Sensitive) rats; assay: In vivo efficacy study on blood pressure in DSS rats (telemetry; systolic and diastolic pressure); conditions: for Systolic blood pressure, mean / Diastolic blood pressure, Mean: Compound I-1 50 mg/kg; for Systolic blood pressure, mean: alone or combined, QD PO
# Excerpt: An in vivo study ascertains the effects on blood pressure in DSS (Dahl Salt Sensitive) rats. The DSS hypertensive rat model is a model of hypertension that is sensitive to dietary salt (NaCl), see for example Rapp (1982) Hypertension 4:753-763 and Hegde et al. BMC Pharmacology 2011, 11 (Suppl 1):P33. Under pentobarbital sodium anesthesia, a DSI (Data Sciences International, St. Paul, Minn.) telemetric probe is implanted. The transducer is inserted into abdominal aorta, and the transmitter is implanted into abdominal cavity. During postoperative recovery period, close observation is performed. Analgesics (Buprenorphine, 0.1-0.5 mg/kg, once per day for 1 day) and preventive antibiotics (Cephradine, 10˜15 mg/kg, ip., once per day for 3 days) are administered on a daily basis. Before the treatment period, all animals are fed with 8% high salt food for about 2 weeks. Test compound is formulated in 0.5% HPC and administered by oral gavage. Five groups of animals are treated as follows: 1. Vehicle, 0.5% HPC, QD, PO, N=5 2. Valsartan, 30 mg/kg, QD, PO, N=5 3. Compound I-1, 50 mg/kg, QD, PO, N=6 4. Compound I-1, 15 mg/kg+Valsartan, 30 mg/kg, QD, PO, N=5 5. Compound I-1, 50 mg/kg+Valsartan, 30 mg/kg, QD, PO, N=5 N is the number of animals. The mean arterial pressure, systolic pressure, diastolic pressure and heart rate after administration for each animal are measured. Interim results obtained before full study completion are shown in Tables 18 and 19 (full cohort of animals beyond day 7 were reduced due to some loss). Mean measurements of the systolic (Table 18) and diastolic (Table 19) blood pressures, for the baseline day prior to first treatment and for treatment days 1 and 7 only, in each treatment group, are shown. Measurements obtained every other hour only are shown.
# [2] = assay type: physicochemical; conditions: pH 2
# Procedure: It was stable at pH of 4.7 and pH of 6.8 up to 70° C. for 3 days.
# [3] = design: species or system Sprague Dawley rats; conditions: rat, in vivo, po, 10 mg/kg
# Procedure: A parallel study design consisting of four groups with three animals per group was conducted to examine the pharmacokinetic properties of the compounds of the present disclosure.
# The drugs were administered to each group are as follows: compound I-1 (Group 1), compound I-2 (Group 2), compound I-3 (Group 3), and AHU377 (sacubitril) (Group 4). Each animal received a single 10 mg/kg (5 ml/kg) oral gavage dose of the specified study drug. The animal weights ranged from […] at the beginning of the study. Compound I-1, compound I-2, compound I-3, and AHU377 were formulated in 0.5% methylcellulose (400 cp) and 0.1% Tween 80 (w,v) in water was used as the vehicle. Water bath sonication was applied to facilitate dispersing for all four study drugs. Blood samples for pharmacokinetics analysis were collected at t=0.25, 0.5, 1, 2, 4, 8, and 24 hours (±5%) post dose administration. Plasma was prepared by collecting whole blood samples into tubes containing EDTA and NaF (final concentrations: ˜1 mg/mL (K2EDTA) and ˜2 mg/mL (NaF)). These tubes were kept in an ice bath prior to centrifugation at approximately 2,000 rcf for 10 minutes at approximately 5° C. To each resultant plasma sample, 50% phosphoric acid (v/v) was added to achieve a final concentration of 1% (v,v).
# [^13C4]-LBQ657 was added as an internal standard to the pharmacokinetic (PK) samples and calibration standards prior to analysis by LC-MS/MS. The LC-MS system consisted of an API6500+ mass spectrometer coupled to an Agilent 1290 HPLC system equipped with a CTC Pal autosampler. The mass spectrometer was operated in the positive ion mode with a TESI ion source.
compound,measurement,setting,value
"CCOC(=O)[C@H](C)C[C@@H](Cc1ccc(-c2ccccc2)cc1)NC(=O)CCC(=O)N[C@@H](CC(C)C)C(=O)O [Compound I-1, (4-(((2S,4R)-1-([1,1′-biphenyl]-4-yl)-5-ethoxy-4-methyl-5-oxopentan-2-yl)amino)-4-oxobutanoyl)-L-leucine]","Systolic blood pressure, mean","[1]; Baseline day prior to first treatment, Hour 1, groups Valsartan 30 mg/kg",163.63
same,"Systolic blood pressure, mean","[1]; Baseline day prior to first treatment, Hour 3, groups Valsartan 30 mg/kg",159.24
same,"Systolic blood pressure, mean","[1]; Baseline day prior to first treatment, Hour 5, groups Valsartan 30 mg/kg",155.66
same,"Systolic blood pressure, mean","[1]; Baseline day prior to first treatment, Hour 7, groups Valsartan 30 mg/kg",154.92
same,"Systolic blood pressure, mean","[1]; Baseline day prior to first treatment, Hour 9, groups Valsartan 30 mg/kg",157.92
same,"Systolic blood pressure, mean","[1]; Baseline day prior to first treatment, Hour 11, groups Valsartan 30 mg/kg",162.87
same,"Systolic blood pressure, mean","[1]; Baseline day prior to first treatment, Hour 13, groups Valsartan 30 mg/kg",167.91
same,"Systolic blood pressure, mean","[1]; Baseline day prior to first treatment, Hour 15, groups Valsartan 30 mg/kg",167.33
same,"Systolic blood pressure, mean","[1]; Baseline day prior to first treatment, Hour 17, groups Valsartan 30 mg/kg",167.09
same,"Systolic blood pressure, mean","[1]; Baseline day prior to first treatment, Hour 19, groups Valsartan 30 mg/kg",169.48
same,"Systolic blood pressure, mean","[1]; Baseline day prior to first treatment, Hour 21, groups Valsartan 30 mg/kg",169.41
same,"Systolic blood pressure, mean","[1]; Baseline day prior to first treatment, Hour 23, groups Valsartan 30 mg/kg",161.71
same,"Diastolic blood pressure, Mean","[1]; Baseline day, Hour 1",111.95
same,"Diastolic blood pressure, Mean","[1]; Baseline day, Hour 3",107.76
same,"Diastolic blood pressure, Mean","[1]; Baseline day, Hour 5",104.17
same,"Diastolic blood pressure, Mean","[1]; Baseline day, Hour 7",102.18
same,"Diastolic blood pressure, Mean","[1]; Baseline day, Hour 9",105.63
same,"Diastolic blood pressure, Mean","[1]; Baseline day, Hour 11",111.89
same,"Diastolic blood pressure, Mean","[1]; Baseline day, Hour 13",116.86
same,"Diastolic blood pressure, Mean","[1]; Baseline day, Hour 15",115.85
same,"Diastolic blood pressure, Mean","[1]; Baseline day, Hour 17",116.42
same,"Diastolic blood pressure, Mean","[1]; Baseline day, Hour 19",117.36
same,"Diastolic blood pressure, Mean","[1]; Baseline day, Hour 21",116.95
same,"Diastolic blood pressure, Mean","[1]; Baseline day, Hour 23",109.93
same,"Diastolic blood pressure, Mean","[1]; Dosing day 1, Hour 1",115.05
same,"Diastolic blood pressure, Mean","[1]; Dosing day 1, Hour 3",106.99
same,"Diastolic blood pressure, Mean","[1]; Dosing day 1, Hour 5",104.66
same,"Diastolic blood pressure, Mean","[1]; Dosing day 1, Hour 7",106.82
same,"Diastolic blood pressure, Mean","[1]; Dosing day 1, Hour 9",108.88
same,"Diastolic blood pressure, Mean","[1]; Dosing day 1, Hour 11",114.90
same,"Diastolic blood pressure, Mean","[1]; Dosing day 1, Hour 13",116.00
same,"Diastolic blood pressure, Mean","[1]; Dosing day 1, Hour 15",117.42
same,"Diastolic blood pressure, Mean","[1]; Dosing day 1, Hour 17",118.42
same,"Diastolic blood pressure, Mean","[1]; Dosing day 1, Hour 19",122.21
same,"Diastolic blood pressure, Mean","[1]; Dosing day 1, Hour 21",115.68
same,"Diastolic blood pressure, Mean","[1]; Dosing day 1, Hour 23",111.09
same,"Diastolic blood pressure, Mean","[1]; Dosing day 7, Hour 1",118.61
same,"Diastolic blood pressure, Mean","[1]; Dosing day 7, Hour 3",109.11
same,"Diastolic blood pressure, Mean","[1]; Dosing day 7, Hour 5",108.96
same,"Diastolic blood pressure, Mean","[1]; Dosing day 7, Hour 7",114.22
same,"Diastolic blood pressure, Mean","[1]; Dosing day 7, Hour 9",126.44
same,"Diastolic blood pressure, Mean","[1]; Dosing day 7, Hour 11",129.02
same,"Diastolic blood pressure, Mean","[1]; Dosing day 7, Hour 13",131.34
same,"Diastolic blood pressure, Mean","[1]; Dosing day 7, Hour 15",126.20
same,"Diastolic blood pressure, Mean","[1]; Dosing day 7, Hour 17",127.80
same,"Diastolic blood pressure, Mean","[1]; Dosing day 7, Hour 19",124.88
same,"Diastolic blood pressure, Mean","[1]; Dosing day 7, Hour 21",116.93
same,"Diastolic blood pressure, Mean","[1]; Dosing day 7, Hour 23",120.18
same,effect on blood pressure,"[1]; DSS rats, as compared to animals treated with vehicle alone, interim results",trend for lower blood pressure
same,"Systolic blood pressure, mean","[1]; Dosing day 1, Hour 1, Valsartan 30 mg/kg",164.94
same,"Systolic blood pressure, mean","[1]; Dosing day 1, Hour 3, Valsartan 30 mg/kg",152.46
same,"Systolic blood pressure, mean","[1]; Dosing day 1, Hour 5, Valsartan 30 mg/kg",155.79
same,"Systolic blood pressure, mean","[1]; Dosing day 1, Hour 7, Valsartan 30 mg/kg",159.33
same,"Systolic blood pressure, mean","[1]; Dosing day 1, Hour 9, Valsartan 30 mg/kg",166.16
same,"Systolic blood pressure, mean","[1]; Dosing day 1, Hour 11, Valsartan 30 mg/kg",168.46
same,"Systolic blood pressure, mean","[1]; Dosing day 1, Hour 13, Valsartan 30 mg/kg",169.35
same,"Systolic blood pressure, mean","[1]; Dosing day 1, Hour 15, Valsartan 30 mg/kg",169.78
same,"Systolic blood pressure, mean","[1]; Dosing day 1, Hour 17, Valsartan 30 mg/kg",174.28
same,"Systolic blood pressure, mean","[1]; Dosing day 1, Hour 19, Valsartan 30 mg/kg",166.11
same,"Systolic blood pressure, mean","[1]; Dosing day 1, Hour 21, Valsartan 30 mg/kg",162.24
same,"Systolic blood pressure, mean","[1]; Dosing day 1, Hour 23, Valsartan 30 mg/kg",158.31
same,"Systolic blood pressure, mean","[1]; Dosing day 7, Hour 1, Valsartan 30 mg/kg",167.78
same,"Systolic blood pressure, mean","[1]; Dosing day 7, Hour 3, Valsartan 30 mg/kg",158.75
same,"Systolic blood pressure, mean","[1]; Dosing day 7, Hour 5, Valsartan 30 mg/kg",156.95
same,"Systolic blood pressure, mean","[1]; Dosing day 7, Hour 7, Valsartan 30 mg/kg",165.23
same,"Systolic blood pressure, mean","[1]; Dosing day 7, Hour 9, Valsartan 30 mg/kg",176.77
same,"Systolic blood pressure, mean","[1]; Dosing day 7, Hour 11, Valsartan 30 mg/kg",182.56
same,"Systolic blood pressure, mean","[1]; Dosing day 7, Hour 13, Valsartan 30 mg/kg",182.29
same,"Systolic blood pressure, mean","[1]; Dosing day 7, Hour 15, Valsartan 30 mg/kg",175.64
same,"Systolic blood pressure, mean","[1]; Dosing day 7, Hour 17, Valsartan 30 mg/kg",179.39
same,"Systolic blood pressure, mean","[1]; Dosing day 7, Hour 19, Valsartan 30 mg/kg",175.46
same,"Systolic blood pressure, mean","[1]; Dosing day 7, Hour 21, Valsartan 30 mg/kg",165.83
same,"Systolic blood pressure, mean","[1]; Dosing day 7, Hour 23, Valsartan 30 mg/kg",170.13
same,degradation in solution,[2]; 1 day,18.27%
same,solution stability under acidic conditions,[2],unstable
same,LBQ657 concentration-time profile,"[3]; male, Sprague-Dawley",flattened relative to AHU377
same,conversion to LBQ657,"[3]; male, Sprague-Dawley",nearly complete conversion to LBQ657
same,LBQ657 exposure (based on AUC values),[3],did not decrease relative to that of AHU377
same,tolerability,[3],very well tolerated
